Data from US8153795B2, “Substituted 1-oxa-3,8-diazaspiro[4.5]-decan-2-one-compounds and the use thereof for producing drugs” (Gruenenthal GmbH, priority 2005, dated 2012).

Target: T1, 5-HT transporter (Rattus norvegicus, UniProt P31652)
T1 construct: from tissue; host or cells: rat brain synaptosomes (P2 fraction) from medulla and pons
Assay: 5-HT uptake inhibition in rat brain synaptosomes (medulla and pons), [3H]-5-HT
Type: biochemical
Text: a) Method for Determining Noradrenalin and 5-HT Uptake Inhibition:
Synaptosomes from rat brain regions are freshly isolated for in vitro studies, as described in the publication “The isolation of nerve endings from brain” by E. G. Gray and V. P. Whittaker, J. Anatomy 96, pages 79-88, 1962. The corresponding literature description is hereby introduced as a reference and is deemed to be part of the disclosure.
The tissue (hypothalamus for the determination of noradrenalin uptake inhibition and medulla and pons for the determination of 5-HT uptake inhibition) is homogenised in ice-cooled 0.32 M sucrose (100 mg of tissue/1 mL) in a glass homogeniser with Teflon pestle using five complete up and down strokes at 840 revolutions/minute.
The homogenate is centrifuged at 4° C. for 10 minutes at 1000 g. After subsequent centrifugation at 17000 g for 55 minutes, the synaptosomes (P2 fraction) are obtained, which are resuspended in 0.32 M […] (0.5 mL/100 mg of original weight).
The particular uptake is measured in a 96-well microtitre plate. The volume is 250 μl and the incubation proceeds at room temperature (approx. 20-25° C.) under an O2 atmosphere.
The incubation time is 7.5 minutes for [^3H]-NA and 5 minutes for [^3H]-5-HT. The 96 samples are then filtered through a Unifilter GF/B® microtitre plate (Packard) and washed with 200 mL of incubated buffer using a “Brabdel MPXRI-96T Cell-Harvester”. The Unifilter GF/B plate is dried for 1 hour at 55° C. The plate is then sealed with a Back Seal® (Packard) and 35 μl of scintillation fluid are added per well (Ultima Gold®, Packard). After sealing with a top Seal® (Packard) and establishing an equilibrium (around 5 hours), radioactivity is determined in a “Trilux 1450 Microbeta” (Wallac).
The quantity of protein used in the above determination corresponds to the values known from the literature, as for example described in “Protein measurement with the folin phenol reagent”, Lowry et al., J. Biol. Chem., 193, 265-275, 1951.
A detailed description of the method may additionally be found in the literature, for example in M. Ch. Frink, H.-H. Hennies, W. Engelberger, M. Haurand and B. Wilffert (1996) Arzneim.-Forsch./Drug Res. 46 (III), 11, 1029-1036.

T1 sequence (P31652 whole entry): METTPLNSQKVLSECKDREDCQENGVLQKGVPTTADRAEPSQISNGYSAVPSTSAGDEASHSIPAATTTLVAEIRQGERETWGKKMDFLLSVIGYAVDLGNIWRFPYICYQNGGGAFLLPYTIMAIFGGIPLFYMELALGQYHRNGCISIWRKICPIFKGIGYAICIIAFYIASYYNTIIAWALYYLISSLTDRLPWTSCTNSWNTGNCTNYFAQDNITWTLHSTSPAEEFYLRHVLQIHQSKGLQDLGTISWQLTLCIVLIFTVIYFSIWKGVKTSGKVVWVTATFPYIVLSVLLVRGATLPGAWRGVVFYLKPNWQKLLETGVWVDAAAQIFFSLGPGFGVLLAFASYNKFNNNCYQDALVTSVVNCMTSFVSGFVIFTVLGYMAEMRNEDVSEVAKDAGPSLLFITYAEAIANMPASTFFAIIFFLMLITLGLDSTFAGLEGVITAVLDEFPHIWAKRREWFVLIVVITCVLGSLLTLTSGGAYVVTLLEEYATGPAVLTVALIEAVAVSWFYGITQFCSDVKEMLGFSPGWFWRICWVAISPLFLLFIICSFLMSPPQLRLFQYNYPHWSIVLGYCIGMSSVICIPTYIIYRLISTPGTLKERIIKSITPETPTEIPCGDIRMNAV

Compared with `Cc1cc(C)cc(CN2CC3(CCN(S(=O)(=O)Cc4ccccc4Cl)CC3)OC2=O)c1` [Example 116, 8-(2-chlorobenzylsulfonyl)-3-(3,5-dimethylbenzyl)-1-oxa-3,8-diazaspiro[4.5]decan-2-one], `Cc1cc(C)cc(CN2CC3(CCN(C(=O)c4cccc(Cl)c4)CC3)OC2=O)c1` [Example 126, 8-(3-chlorobenzoyl)-3-(3,5-dimethylbenzyl)-1-oxa-3,8-diazaspiro[4.5]decan-2-one] is lower in inhibition at 10 µM: 76% for the first, 64% for the second.

First: Cc1cc(C)cc(CN2CC3(CCN(C(=O)c4ccc5nonc5c4)CC3)OC2=O)c1 [Example 117, 8-(benzo[1,2,5]oxadiazole-5-carbonyl)-3-(3,5-dimethylbenzyl)-1-oxa-3,8-diazaspiro[4.5]decan-2-one]
Second: Cc1cc(C)cc(CN2CC3(CCN(C(=O)c4ccc(F)c(Cl)c4)CC3)OC2=O)c1 [Example 131, 8-(3-chloro-4-fluorobenzoyl)-3-(3,5-dimethylbenzyl)-1-oxa-3,8-diazaspiro[4.5]decan-2-one]
The inhibition at 10 µM of the first is higher: 73% for the first, 63% for the second.

`O=C1OC2(CCN(C(=O)c3ccc(-c4ccccc4)cc3)CC2)CN1Cc1ccc(I)cc1` [Example 118, 8-(biphenyl-4-carbonyl)-3-(4-iodobenzyl)-1-oxa-3,8-diazaspiro[4.5]decan-2-one] and `O=C1OC2(CCN(C(=O)c3ccc(Cl)nc3)CC2)CN1Cc1ccc2ccccc2c1` [Example 120, 8-(6-chloropyridine-3-carbonyl)-3-naphthalen-2-ylmethyl-1-oxa-3,8-diazaspiro[4.5]decan-2-one] are the same in inhibition at 10 µM: 66% for the first, 66% for the second.

First: Cc1cc(C)cc(CN2CC3(CCN(C(=O)c4ccccn4)CC3)OC2=O)c1 [Example 119, 3-(3,5-dimethylbenzyl)-8-(pyridine-2-carbonyl)-1-oxa-3,8-diazaspiro[4.5]decan-2-one]
Second: Cc1cc(C)cc(CN2CC3(CCN(C(=O)c4ccno4)CC3)OC2=O)c1 [Example 128, 3-(3,5-dimethylbenzyl)-8-(isoxazole-5-carbonyl)-1-oxa-3,8-diazaspiro[4.5]decan-2-one]
The inhibition at 10 µM of the first is higher: 67% for the first, 62% for the second.

`CCSc1ncccc1C(=O)N1CCC2(CC1)CN(Cc1cccc(Br)c1)C(=O)O2` [Example 121, 3-(3-bromobenzyl)-8-(2-ethylsulfanylpyridine-3-carbonyl)-1-oxa-3,8-diazaspiro[4.5]decan-2-one] and `O=C1OC2(CCN(C(=O)c3ccccn3)CC2)CN1Cc1cccc(Br)c1` [Example 129, 3-(3-bromobenzyl)-8-(pyridine-2-carbonyl)-1-oxa-3,8-diazaspiro[4.5]decan-2-one] are the same in inhibition at 10 µM: 77% for the first, 77% for the second.

Compared with `Cc1cc(C)cc(CN2CC3(CCN(C(=O)c4cc(C)on4)CC3)OC2=O)c1` [Example 122, 3-(3,5-dimethylbenzyl)-8-(5-methylisoxazole-3-carbonyl)-1-oxa-3,8-diazaspiro[4.5]decan-2-one], `Cc1cc(C)cc(CN2CC3(CCN(C(=O)c4c(F)ccc(C)c4F)CC3)OC2=O)c1` [Example 132, 8-(2,6-difluoro-3-methylbenzoyl)-3-(3,5-dimethylbenzyl)-1-oxa-3,8-diazaspiro[4.5]decan-2-one] is lower in inhibition at 10 µM: 68% for the first, 65% for the second.

Compared with `CCCCC(=O)N1CCC2(CC1)CN(Cc1cc([N+](=O)[O-])ccc1OC)C(=O)O2` [Example 123, 3-(2-methoxy-5-nitrobenzyl)-8-pentanoyl-1-oxa-3,8-diazaspiro[4.5]decan-2-one], `COc1cccc(CC(=O)N2CCC3(CC2)CN(Cc2cc([N+](=O)[O-])ccc2OC)C(=O)O3)c1` [Example 145, 3-(2-methoxy-5-nitrobenzyl)-8-[2-(3-methoxyphenyl)acetyl]-1-oxa-3,8-diazaspiro[4.5]decan-2-one] is higher in inhibition at 10 µM: 71% for the first, 77% for the second.

Compared with `Cc1cc(C)cc(CN2CC3(CCN(C(=O)c4ccc(Br)cc4)CC3)OC2=O)c1` [Example 124, 8-(4-bromobenzoyl)-3-(3,5-dimethylbenzyl)-1-oxa-3,8-diazaspiro[4.5]decan-2-one], `Cc1cc(C)cc(CN2CC3(CCN(C(=O)c4cccs4)CC3)OC2=O)c1` [Example 130, 3-(3,5-dimethylbenzyl)-8-(thiophene-2-carbonyl)-1-oxa-3,8-diazaspiro[4.5]decan-2-one] is lower in inhibition at 10 µM: 72% for the first, 70% for the second.

Going from `COc1ccc([N+](=O)[O-])cc1CN1CC2(CCN(C(=O)c3cc(C(C)(C)C)oc3C)CC2)OC1=O` [Example 125, 8-(5-tert-butyl-2-methylfuran-3-carbonyl)-3-(2-methoxy-5-nitrobenzyl)-1-oxa-3,8-diazaspiro[4.5]decan-2-one] to `COc1ccc([N+](=O)[O-])cc1CN1CC2(CCN(C(=O)c3cccc(N(C)C)c3)CC2)OC1=O` [Example 138, 8-(3-dimethylaminobenzoyl)-3-(2-methoxy-5-nitrobenzyl)-1-oxa-3,8-diazaspiro[4.5]decan-2-one], the inhibition at 10 µM rises from 63% to 65%.

Going from `CCSc1ncccc1C(=O)N1CCC2(CC1)CN(Cc1ccccc1C(F)(F)F)C(=O)O2` [Example 127, 8-(2-ethylsulfanylpyridine-3-carbonyl)-3-(2-trifluoromethylbenzyl)-1-oxa-3,8-diazaspiro[4.5]decan-2-one] to `O=C1OC2(CCN(C(=O)c3c(Cl)cccc3Cl)CC2)CN1Cc1ccccc1F` [Example 139, 8-(2,6-dichlorobenzoyl)-3-(2-fluorobenzyl)-1-oxa-3,8-diazaspiro[4.5]decan-2-one], the inhibition at 10 µM rises from 63% to 70%.

`COC(=O)CCC(=O)N1CCC2(CC1)CN(Cc1cccc(Br)c1)C(=O)O2` [Example 133, 4-[3-(3-bromobenzyl)-2-oxo-1-oxa-3,8-diazaspiro[4.5]dec-8-yl]-4-oxobutanoic acid methyl ester] and `CCC(CC)C(=O)N1CCC2(CC1)CN(Cc1cccc(C#N)c1)C(=O)O2` [Example 134, 3-[8-(2-ethylbutyryl)-2-oxo-1-oxa-3,8-diazaspiro[4.5]dec-3-ylmethyl]benzonitrile] are the same in inhibition at 10 µM: 64% for the first, 64% for the second.

First: N#Cc1cccc(CN2CC3(CCN(S(=O)(=O)Cc4cccc(Br)c4)CC3)OC2=O)c1 [Example 135, 3-[8-(3-bromobenzylsulfonyl)-2-oxo-1-oxa-3,8-diazaspiro[4.5]dec-3-ylmethyl]benzonitrile]
Second: Cc1cc(C(=O)N2CCC3(CC2)CN(Cc2cccc(C#N)c2)C(=O)O3)ccc1Br [Example 147, 3-[8-(4-bromo-3-methylbenzoyl)-2-oxo-1-oxa-3,8-diazaspiro[4.5]dec-3-ylmethyl]benzonitrile]
The inhibition at 10 µM of the first is lower: 69% for the first, 73% for the second.

Going from `Cc1ccc(C(=O)N2CCC3(CC2)CN(Cc2ccc(F)c(F)c2)C(=O)O3)cc1` [Example 136, 3-(3,4-difluorobenzyl)-8-(4-methylbenzoyl)-1-oxa-3,8-diazaspiro[4.5]decan-2-one] to `O=C1OC2(CCN(C(=O)c3cccnc3Oc3ccccc3)CC2)CN1Cc1ccc(F)c(F)c1` [Example 146, 3-(3,4-difluorobenzyl)-8-(2-phenoxypyridine-3-carbonyl)-1-oxa-3,8-diazaspiro[4.5]decan-2-one], the inhibition at 10 µM falls from 67% to 63%.

First: COc1ccc([N+](=O)[O-])cc1CN1CC2(CCN(C(=O)c3cccnc3Oc3ccccc3)CC2)OC1=O [Example 140, 3-(2-methoxy-5-nitrobenzyl)-8-(2-phenoxypyridine-3-carbonyl)-1-oxa-3,8-diazaspiro[4.5]decan-2-one]
Second: O=C1OC2(CCN(C(=O)c3cccnc3Oc3ccccc3)CC2)CN1Cc1cccc(Br)c1 [Example 144, 3-(3-bromobenzyl)-8-(2-phenoxypyridine-3-carbonyl)-1-oxa-3,8-diazaspiro[4.5]decan-2-one]
The inhibition at 10 µM of the first is lower: 64% for the first, 81% for the second.

Compared with `COc1cccc(CC(=O)N2CCC3(CC2)CN(Cc2ccc4ccccc4c2)C(=O)O3)c1` [Example 141, 8-[2-(3-methoxyphenyl)acetyl]-3-naphthalen-2-ylmethyl-1-oxa-3,8-diazaspiro[4.5]decan-2-one], `O=C1OC2(CCN(C(=O)c3cc(C(F)(F)F)cc(C(F)(F)F)c3)CC2)CN1Cc1ccc(C(F)(F)F)cc1` [Example 143, 8-(3,5-bis-trifluoromethylbenzoyl)-3-(4-trifluoromethylbenzyl)-1-oxa-3,8-diazaspiro[4.5]decan-2-one] is lower in inhibition at 10 µM: 78% for the first, 66% for the second.

`N#Cc1ccc(CN2CC3(CCN(S(=O)(=O)c4ccc5c(c4)CN(C(=O)C(F)(F)F)CC5)CC3)OC2=O)cc1` [Example 142, 4-{2-oxo-8-[2-(2,2,2-trifluoroacetyl)-1,2,3,4-tetrahydroisoquinoline-7-sulfonyl]-1-oxa-3,8-diazaspiro[4.5]dec-3-ylmethyl}benzonitrile] showed an inhibition at 10 µM of 67%.
